“Also recorded” adds a separate entry of the source.

In experiment [1] the test system is 3T3 mouse fibroblasts. The experiment can be described thus: LPA-induced stress fibre formation, TRITC-phalloidin fluorescence. Type of experiment: cell-based. Particulars: 3T3 cells, LPA 300 nM 10 min; compound 30 μmol/L 30 min pre-treatment. The text has this:
For the initial analysis, 3T3 cells were used to evaluate the cellular effects of the compounds of the present invention. In these cells changes in the cytoskeleton caused by GTPase activation are well observable, because the cells have a G protein coupled receptor for LPA. A stimulation of 3T3 cells with LPA leads to an activation of RhoA and thereby to the formation of fibrillar actin filaments (F-actin, stress fibres). The participation of AKAP-Lbc as an exchange factor for RhoA within the signal transduction via a G protein of the G−12/13 family was shown.
3T3 mouse fibroblasts were seeded on 30 mm cover slips (in 6 well plates) in a cell density of 2×10^5 cells/well. […]
Following that, the cells were washed with phosphate buffer (Dulbecco's Phosphate-Buffered Saline++) and fixed in 2.5% paraformaldehyde in sodium cacodylate buffer (100 mmol/L sodium cacodylate, 100 mmol/L sucrose, pH 7.4) for 15 min. […] For the microscopic investigations, images were taken with two different fluorescence channels. […]
Without LPA stimulation no stress fibres could be identified after addition of DMSO instead of the compounds of the invention (FIG. 2A, a). […] The quantification of the stress fibre formation were performed with the software package ImageJ by the determination of the overall fluorescence of the TRITC-phalloidin. […]

Experiment [2] deals with Gα12 coupled and AKAP-Lbc mediated activation of RhoA. In words: Rhotekin-based precipitation of RhoA-GTP, HEK293 transfected with Gα12QL / AKAP-Lbc. The class given is cell-based, human. Particulars: 50 μmol/L, 30 min, vs DMSO. The procedure:
(§1) HEK293 cells were seeded in 6-well plates. One day later the cells were transfected with the following plasmid DNAs:
(§2) After additional 24 hours the cells were treated with compound 31413 (50 μmol/L) or DMSO for 30 min at 37° C. Subsequently, the cells were lysed in precipitation buffer (50 mM Tris pH 7.4, 150 mmol/L NaCl, 4 mmol/L MgCl2; 10% v/v glycerol, 1% octylphenoxypolyethoxyethanol [IPEGAL]) and centrifugated 20000 g for two minutes to remove cell debris. 40 μl of the lysate were taken for the determination of the total RhoA content. The residual lysate was incubated with 40 μl GSH-sepharose coupled GST-rhotekin for one hour at 4° C. Then, the GSH-sepharose was washed twice with precipitation buffer, enriched with SDS-PAGE loading buffer and heated 5 min at 90° C. […] The ratio between total RhoA and Rho-GTP was densitometrically determined.
(§3) The activation state of RhoA was determined with a Rho binding region of the rhotekin protein, a Rho effector, immobilised on a sepharose bead in the presence and absence of compound 31413. […]
(§4) GTP-bound RhoA was detected by rhotekin precipitation (FIG. 3). The precipitation of RhoA from transfected HEK293 cells was performed with a rhotekin sepharose, and analysed with SDS-PAGE and immunoblotting with a RhoA specific antibody. […] The precipitated RhoA-GTP was separated with SDS-PAGE, blotted and detected with a specific anti-RhoA antibody.

Experiment [3] has as its system GαqRC and p63RhoGEF (Gαq coupled activation of RhoA). The experiment can be described thus: Rhotekin-based precipitation of RhoA-GTP, HEK293 transfected with GαqRC / p63RhoGEF. Type of experiment: cell-based, human. The note with it: 50 μmol/L. On the procedure:
as §1, §2, §3, §4

For experiment [4], the system named is AKAP-Lbc mediated RhoA/SRF activation. In words: Dual luciferase SRE reporter assay, AKAP-Lbc transfected HEK293. The class given is cell-based. The note with it: Homo sapiens. On the procedure:
The experiments were performed following the protocol of the dual luciferase reporter assay (Promega). HEK293 cells were transfected with plasmid DNAs of two luciferases and plasmids of different exchange factors. A serum response element was located ahead of the coding luciferase sequences. Activated RhoA activates the serum response element, which enables the expression of the firefly luciferase. After 4 hours the cells were treated with compound 31413. After additional twenty four hours the cells were lysed in passive lysis buffer (Promega). The luciferase activity in the cell lysate was determined by measurement of the luminescence signal according to above mentioned protocol with 96 well plate (OptiPlate 96) and LarII- and. Stop-&Glow-substrate solutions in a micro plate reader
To rule out that other RhoGEF are influenced by the inventive compounds in their activity, HEK293 cells were transfected with different RhoGEF constructs. Additionally, as normalization control, two luciferase plasmids were added, which code for a serum response element (SRE) coupled firefly luciferase and for a Renilla luciferase, respectively. […] The luciferase activities were determined in the lysate. […] Further, the luciferase activity of the indicated RhoGEFs was analysed in absence or presence of 50 μmol/L compound 31413 (FIG. 4 B).
In general terms: A reporter such as luciferase makes a cellular process visible.

As a reminder, the IC50 is the point on the concentration scale where inhibition reaches its midpoint. Lower therefore signals inhibition by little substance. Turning to `COc1ccc(-c2coc3cc4oc(=O)c(C)c(C)c4cc23)cc1` [Compound 31413, 3-(4-methoxyphenyl)-5,6-dimethyl-furo[3,2-g]chromen-7-one], the “formation of stress fibres” value in experiment [1] is “suppression of the stress fibre formation”. For the same molecule, the “amount of activated GTP-bound RhoA precipitated” value in experiment [2] is given as “significantly decreased amount of activated GTP-bound RhoA; also recorded: less RhoA-GTP was precipitated”. The “precipitated amount of RhoA-GTP” value in experiment [3] is on record as “no difference”. Also, the IC50 in experiment [4] was ~25 µM.

The record behind these values is patent US20160008339A1, “PSORALEN DERIVATIVES FOR PREVENTING OR TREATING HEART FAILURE OR CARDIAC HYPERTROPHY” (MAX-DELBRUCK-CENTRUM FUR MOLEKULARE MEDIZIN, priority 2012, published 2016).
